The values below come from publication PMC9786741, “Elucidating the Role of Santalol as a Potent Inhibitor of Tyrosinase: In Vitro and In Silico Approaches” (Molecules, 2022).

pKd: −log10 of the molar value.

The target of this assay is T1, tyrosinase (mushroom tyrosinase, polyphenoloxidase EC 1.14.18.1).
T1 construct: gene PPO3; native enzyme from mushroom caps; ammonium sulphate, DEAE-cellulose, Superdex 200; single 63 kDa band on SDS-PAGE; isoenzyme not determined
In words: isothermal titration calorimetry. Also noted: species or system Agaricus bisporus. As to conditions: 25 °C, pH 6.8, 25 mM phosphate; step 1 (strongest) of three-step sequential binding model. The source says: isothermal titration calorimetry on tyrosinase (mushroom tyrosinase, polyphenoloxidase EC 1.14.18.1)

In the case of `C=C1C2CCC(C2)C1(C)CC/C=C(/C)CO` (stereo not shown) [santalol], the pKd was 5.90.
